Experimental data from patent US20020059032A1, “Rational selection of putative peptides from identified nucleotide or peptide sequences” (priority 1999, published 2002).
Where a SMILES comes first, the peptide text is derived from it.

molecular target: guinea pig brain membranes; assay: Binding test with guinea pig brain membranes; conditions: tested on guinea pig brain membranes; read-out: IC50 = 100 μM
Procedure: Binding Assay Alternative Protocol by Skatron
The experimental conditions are identical for all the binding assay protocols except for the fact that: i) the volume R in operation is 200 μl; ii) the test carried out in 96-well Falcon plates iii) the reaction is directly stopped by filtration on filterMat (ref. 11734) Skatron and the radioactivity associated with the filtrate is evaluated: either directly with a γ counter for the peptides labelled with […]: or with a […] in the presence of 5 ml of scintillating liquid.
Membrane Preparations of Guinea Pig Brains and Binding Assay
The guinea pigs are sacrificed by rupturing their cervical vertibrae, decapitated, and the brains are removed very rapidly and placed into a sucrose-Tris-HCl buffer (0.32 M sucrose 5 mM, Tris-HCl, 0.1 g/l bacitracin) at 4° C. (about 10 ml of buffer per brain). The brains are then homogenized using a Potter device and the homogenate is placed in incubation for 30 minutes at 37° C. under agitation, then centrifuged twice for 35 minutes at 100,000×g at 4° C. The protein content of the membrane preparations is evaluated according to the Bradford method (BioRad, according to the manufacturers protocol).
Bonding of Labelled Agonists to the Guinea Pig Brain Membrane Preparation The membranes are placed in a buffer (50 mM of Tris-HCl, 5 mM of MgCl2 and 0.1 g/l of bacitracin) at the desired protein concentration (iodized CCK bond, 0.1 mg of protein/ml; iodized gastrin bond: 0.5 mg of proteins/ml). They are then incubated in the presence of a labelled ligand in a total volume of 500 μl (about 10 pM for the iodized CCK8, 20 pM for the iodized gastrin13), 50-80 minutes at 25° C., and in the presence or absence of cold agonists. The reaction is stopped with 3 ml of additional BSA buffer (20 g/l) at 4° C., the tubes are centrifuged at 10,000×g, the supernatant is drawn off and the radioactivity associated with the precipitate is evaluated with a γ counter.

| Structure (SMILES) | IC50 [nM] |
| --- | --- |
| CC(C)C[C@H](NC(=O)CNC(=O)[C@H](CC(C)C)NC(=O)[C@H](CC(N)=O)NC(=O)[C@H](CCCNC(=N)N)NC(=O)[C@H](CC(C)C)NC(=O)[C@@H](NC(=O)[C@H](CO)NC(=O)[C@@H](NC(=O)[C@H](CO)NC(=O)[C@@H](N)Cc1ccccc1)C(C)C)[C@@H](C)O)C(N)=O [Example 46, H-FSVSTLRNLGL-NH2] (H-FSVSTLRNLGL-NH2) | 100 |
| CC(C)C[C@H](NC(=O)[C@H](CCC(=O)O)NC(=O)[C@H](CC(=O)O)NC(=O)[C@H](CC(C)C)NC(=O)[C@@H](NC(=O)[C@H](Cc1ccccc1)NC(=O)[C@H](C)NC(=O)[C@H](Cc1c[nH]cn1)NC(=O)[C@H](CO)NC(=O)[C@H](CO)NC(=O)[C@@H](N)CC(=O)O)[C@@H](C)O)C(=O)N[C@@H](CCCNC(=N)N)C(N)=O [Example 17, H-DSSHAFTLDELR-NH2] (H-DSSHAFTLDELR-NH2) | 680 |
| CC(C)C[C@H](NC(=O)[C@@H](N)CCC(N)=O)C(=O)N[C@@H](Cc1c[nH]c2ccccc12)C(=O)N[C@@H](CC(=O)O)C(=O)N[C@H](C(=O)N[C@@H](C)C(=O)N[C@@H](Cc1c[nH]cn1)C(=O)N[C@@H](CO)C(=O)N[C@H](C(=O)N[C@@H](CCCCN)C(=O)N[C@@H](CCC(=O)O)C(=O)N[C@@H](CCCCN)C(=O)N[C@@H](Cc1ccccc1)C(N)=O)C(C)C)C(C)C [Example 54, H-QLWDVAHSVKEKF-NH2] (H-QLWDVAHSVKEKF-NH2) | 300 |
| CC(C)C[C@H](NC(=O)[C@H](CC(N)=O)NC(=O)[C@H](CC(=O)O)NC(=O)[C@H](Cc1c[nH]c2ccccc12)NC(=O)[C@@H](NC(=O)[C@H](CC(C)C)NC(=O)[C@H](CC(=O)O)NC(=O)[C@H](CO)NC(=O)[C@H](C)NC(=O)[C@@H](N)CO)[C@@H](C)O)C(=O)N[C@@H](CCCCN)C(N)=O [Example 34, H-SASDLTWDNLK-NH2] (H-SASDLTWDNLK-NH2) | 1000 |
| CC(C)[C@H](NC(=O)[C@@H](NC(=O)[C@H](CCCCN)NC(=O)[C@@H]1CCCN1C(=O)[C@@H](NC(=O)[C@@H](NC(=O)[C@H](C)NC(=O)[C@H](CCCNC(=N)N)NC(=O)[C@@H]1CCCN1)[C@@H](C)O)[C@@H](C)O)[C@@H](C)O)C(=O)N[C@@H](CCCNC(=N)N)C(=O)N[C@@H](CO)C(N)=O [Example 42, H-PRATTPKTVRS-NH2] (H-PRATTPKTVRS-NH2) | 560 |
| CSCC[C@H](NC(=O)[C@H](CCC(N)=O)NC(=O)[C@H](CCC(=O)O)NC(=O)[C@H](CCSC)NC(=O)[C@H](CC(C)C)NC(=O)[C@@H]1CCCN1C(=O)CNC(=O)[C@@H]1CCCN1C(=O)[C@@H]1CCCN1C(=O)CNC(=O)CNC(=O)[C@@H]1CCCN1C(=O)CNC(=O)CN)C(=O)NCC(N)=O [Example 36, H-GGPGGPPGPLMEQMG-NH2] (H-GGPGGPPGPLMEQMG-NH2) | 2900 |
| CC[C@H](C)[C@H](NC(=O)[C@H](CC(N)=O)NC(=O)[C@H](Cc1c[nH]cn1)NC(=O)[C@@H](N)CC(C)C)C(=O)N[C@@H](CC(C)C)C(=O)NCC(=O)N[C@H](C(=O)N[C@@H](CCC(=O)O)C(=O)N[C@H](C(=O)NCC(=O)NCC(=O)N1CCC[C@H]1C(=O)NCC(N)=O)[C@@H](C)O)C(C)C [Example 33, H-LHNILGVETGGPG-NH2] (H-LHNILGVETGGPG-NH2) | 100 |
| CC(C)C[C@H](NC(=O)[C@H](CO)NC(=O)[C@@H](NC(=O)[C@H](CC(=O)O)NC(=O)[C@@H](N)CO)[C@@H](C)O)C(=O)N[C@H](C(=O)N[C@@H](Cc1c[nH]c2ccccc12)C(=O)N[C@@H](CC(N)=O)C(=O)N[C@@H](CO)C(=O)N[C@H](C(=O)N[C@@H](CCCCN)C(N)=O)C(C)C)[C@@H](C)O [Example 27, H-SDTSLTWNSVK-NH2] (H-SDTSLTWNSVK-NH2) | 680 |
| CSCC[C@H](NC(=O)[C@H](C)NC(=O)[C@@H](NC(=O)[C@@H](N)CCC(=O)O)C(C)C)C(=O)N[C@@H](CC(=O)O)C(=O)N[C@@H](CC(=O)O)C(=O)N[C@@H](Cc1c[nH]cn1)C(=O)N[C@@H](CCCCN)C(=O)N[C@@H](CC(C)C)C(=O)N[C@@H](CO)C(=O)N[C@@H](CC(C)C)C(=O)N[C@@H](CC(=O)O)C(=O)N[C@@H](CCC(=O)O)C(=O)N[C@@H](CC(C)C)C(N)=O [Example 58, H-EVAMDDHKLSLDEL-NH2] (H-EVAMDDHKLSLDEL-NH2) | 860 |
| CC(C)[C@H](NC(=O)[C@H](C)NC(=O)[C@H](CCCCN)NC(=O)[C@H](C)NC(=O)[C@@H]1CCCN1C(=O)[C@@H](NC(=O)[C@@H](NC(=O)[C@@H](N)[C@@H](C)O)C(C)C)[C@@H](C)O)C(=O)N[C@H](C(=O)N[C@H](C(=O)N1CCC[C@H]1C(N)=O)[C@@H](C)O)[C@@H](C)O [Example 59, H-TVTPAKAVTTP-NH2] (H-TVTPAKAVTTP-NH2) | 410 |
| CC[C@H](C)[C@H](NC(=O)[C@H](CCCCN)NC(=O)[C@@H](NC(=O)[C@H](CC(C)C)NC(=O)[C@@H](NC(=O)CNC(=O)[C@@H](N)CO)[C@@H](C)O)[C@@H](C)CC)C(=O)N[C@@H](Cc1ccccc1)C(=O)N[C@@H](CCC(N)=O)C(=O)N[C@@H](C)C(=O)N[C@@H](CO)C(N)=O [Example 47, H-SGTLIKIFQAS-NH2] (H-SGTLIKIFQAS-NH2) | 300 |
| CSCC[C@H](NC(=O)[C@@H](NC(=O)[C@H](CCC(=O)O)NC(=O)[C@H](CCC(=O)O)NC(=O)[C@H](CC(C)C)NC(=O)[C@H](CCC(N)=O)NC(=O)[C@@H](N)CC(C)C)[C@@H](C)O)C(=O)N1CCC[C@H]1C(=O)N[C@@H](CO)C(=O)N1CCC[C@H]1C(=O)N[C@@H](Cc1ccc(O)cc1)C(N)=O [Example 14, H-LQLEETMPSPY-NH2] (H-LQLEETMPSPY-NH2) | 860 |
| CSCC[C@H](NC(=O)[C@H](Cc1ccccc1)NC(=O)[C@H](Cc1ccc(O)cc1)NC(=O)[C@H](CC(N)=O)NC(=O)[C@@H](N)CO)C(=O)N1CCC[C@H]1C(=O)N[C@@H](Cc1ccccc1)C(=O)N[C@@H](CO)C(=O)N[C@@H](C)C(N)=O [Example 21, H-SNYFMPFSA-NH2] (H-SNYFMPFSA-NH2) | 160 |
| CSCC[C@H](NC(=O)[C@H](C)NC(=O)[C@H](CCCCN)NC(=O)[C@H](CC(N)=O)NC(=O)[C@H](C)NC(=O)[C@H](CCC(=O)O)NC(=O)[C@H](CCC(=O)O)NC(=O)[C@H](CCCCN)NC(=O)[C@H](C)NC(=O)[C@H](CC(=O)O)NC(=O)[C@H](CCC(N)=O)NC(=O)[C@H](CCC(=O)O)NC(=O)[C@H](C)NC(=O)[C@@H](N)Cc1ccccc1)C(N)=O [Example 48, H-FAEQDAKEEANKAM-NH2] (H-FAEQDAKEEANKAM-NH2) | 1470 |
| CSCC[C@H](NC(=O)[C@H](CC(C)C)NC(=O)CNC(=O)[C@H](Cc1ccccc1)NC(=O)[C@H](Cc1ccccc1)NC(=O)[C@H](CCC(N)=O)NC(=O)[C@H](CCC(N)=O)NC(=O)[C@@H]1CCCN1C(=O)[C@H](CCCCN)NC(=O)[C@@H]1CCCN1C(=O)[C@@H](N)Cc1ccc(O)cc1)C(N)=O [Example 64, H-YPKPQQFFGLM-NH2] (H-YPKPQQFFGLM-NH2) | 1 |
| CC[C@H](C)[C@H](NC(=O)[C@@H]1CCCN1C(=O)[C@@H](NC(=O)[C@H](Cc1ccccc1)NC(=O)[C@H](CC(C)C)NC(=O)[C@@H](NC(=O)[C@H](CO)NC(=O)CNC(=O)[C@H](CC(C)C)NC(=O)[C@H](CC(C)C)NC(=O)[C@@H]1CCCN1)[C@@H](C)O)[C@@H](C)CC)C(N)=O [Example 12, H-PLLGSTLFIPI-NH2] (H-PLLGSTLFIPI-NH2) | 20 |
| CC[C@H](C)[C@H](NC(=O)[C@@H]1CCCN1C(=O)[C@H](CCC(=O)O)NC(=O)[C@H](CC(=O)O)NC(=O)[C@@H](NC(=O)CNC(=O)[C@H](CCC(=O)O)NC(=O)[C@H](Cc1ccccc1)NC(=O)[C@H](CC(=O)O)NC(=O)[C@@H](NC(=O)[C@@H](N)CC(=O)O)C(C)C)[C@@H](C)O)C(=O)N[C@@H](Cc1ccccc1)C(N)=O [Example 38, H-DVDFEGTDEPIF-NH2] (H-DVDFEGTDEPIF-NH2) | 500 |
| C[C@@H](O)[C@H](NC(=O)[C@@H](N)CCC(=O)O)C(=O)N[C@@H](CCCCN)C(=O)N[C@@H](Cc1c[nH]cn1)C(=O)NCC(=O)NCC(=O)N[C@@H](Cc1c[nH]cn1)C(=O)N[C@@H](CCCCN)C(=O)N[C@@H](CC(N)=O)C(N)=O [Example 49, H-ETKHGGHKN-NH2] (H-ETKHGGHKN-NH2) | 330 |
| CSCC[C@H](N)C(=O)NCC(=O)N[C@@H](CCCCN)C(=O)N[C@@H](Cc1c[nH]c2ccccc12)C(=O)N[C@@H](Cc1c[nH]cn1)C(=O)N[C@H](C(=O)NCC(N)=O)C(C)C [Example 67, H-MGKWHVG-NH2] (H-MGKWHVG-NH2) | 160 |
| CC(C)C[C@H](NC(=O)[C@H](CCCCN)NC(=O)[C@H](CO)NC(=O)[C@@H](N)CCC(=O)O)C(=O)N[C@@H](CCC(=O)O)C(=O)N[C@@H](CCCNC(=N)N)C(=O)N[C@H](C(=O)N1CCC[C@H]1C(=O)N[C@@H](CCC(N)=O)C(=O)N[C@@H](CCCCN)C(=O)N[C@@H](CC(N)=O)C(=O)N[C@H](C(=O)N[C@@H](CCC(N)=O)C(N)=O)C(C)C)[C@@H](C)O [Example 41, H-ESKLERTPQKNVQ-NH2] (H-ESKLERTPQKNVQ-NH2) | 250 |
| CSCC[C@H](NC(=O)[C@@H](N)Cc1ccc(O)cc1)C(=O)N[C@@H](Cc1c[nH]cn1)C(=O)NCC(=O)N[C@@H](Cc1c[nH]cn1)C(=O)N[C@@H](CCCNC(=N)N)C(=O)N[C@@H](C)C(=O)N1CCC[C@H]1C(=O)NCC(N)=O [Example 66, H-YMHGHRAPG-NH2] (H-YMHGHRAPG-NH2) | 2 |
